Assay results taken from US9597391B2, “Cyclic-dinucleotides and its conjugates as adjuvants and their uses in pharmaceutical compositions” (HELMHOLTZ_ZENTRUM FUER INFEKTIONSFORSCHUNG GMBH, priority 2005, dated 2017).

Tests used:
Format in all cases: in vivo
[1] = test system: spleen cells; assay: ELISPOT of cytokine producing spleen cells from vaccinated mice; settings: i.n.; restimulation with CD8 epitope peptide (FIG. 10)
Experimental: Experimental protocol: Spleens from vaccinated mice were removed and pooled for analysis of cellular immune responses. The protocol for vaccination was identical to the protocol described in Example 2. Cells were grown in RPMI 1640 supplemented with 10% fetal calf serum, 100 U/ml of penicillin, 50 μg/ml of streptomycin, 5×10^−5 M 2-mercaptoethanol and 1 mM L-glutamine (GIBCO BRL, Karlsruhe, Germany) and maintained at 37° C. in a humidified 5% CO2 atmosphere. […]
For coating ELISPOT plates, said plates were incubated with 100 μl/well of purified capture antibody (10 μg/ml in coating buffer) at 4° C. overnight. After 6× washing steps, the plates were blocked with 200 μl/well of complete RPMI-1640 at room temperature for 1 hour. The activated cells were seeded at 100 μl per well and incubate at 37° C., in a 5% CO2 humidified incubator for 24 hours or 48h hours. After 5× washing steps with washing buffer and 1× step with distilled water, 100 μl/well of the biotinylated detection antibody with a concentration of 1 μg/ml in Assay Diluent was added and incubated at room temperature for 2 hrs. After further washing steps 100 μl/well of the AV-HRP at 1/1000 dilution in Assay Diluent was added and incubated at room temperature for 30 minutes. After further washing steps 100 μl/well of AEC Substrate Solution was added and developed at room temperature for 10-60 minutes until visible spots appeared. After washing steps with (3×) with 200 μl/well distilled water, the plates were air-dried and analyzed by counting the spots by an ELISPOT reader. Each concentration was tested in triplicates.

[2] = test system: BALB/c (H-2d) mice; assay: Serum β-gal-specific IgG ELISA after i.n. or s.c. immunization with β-gal plus adjuvant; settings: i.n., β-gal 30 μg/dose with or without adjuvant 10 μg; end point titers (FIG. 11; FIG. 2)
Experimental: Experimental protocol: six-eight weeks-old female BALB/c (H-2d) mice were purchased from Harlan Winkelmann GmbH (Borchen, Germany) and treated in accordance with local and European Community guidelines. Groups of 5 mice each were immunized on day 1, 14 and 28 with 30 μg of β-gal (Boehringer, Mannheim, Germany), alone or as an admixture with 10 μg c-diGMP or with 10 μpg c-diAMP. For intranasal (i.n.) immunization, 10 μl were applied to each naris, whereas for the s.c. injection β-gal with or without c-diGMP or c-diAMP was resuspended in a volume of 20 μl PBS per animal. Serum samples were collected at day 38 after immunization and stored at −20° C. prior to determination of β-gal-specific antibodies. 96-well Nunc-Immuno MaxiSorp assay plates (Nunc, Roskilde, Denmark) were coated with 100 μl of β-gal (Boehringer, Mannheim, Germany) at 5 μg/ml in 0.05 M carbonate buffer (pH 8.2) per well. Serial two-fold dilutions of sera in PBS with 1% BSA and 0.05% Tween 20 were added (100 μl/well), and plates incubated for 16h at 37° C. After washing, biotinylated γ-chain-specific goat anti-mouse IgG (Sigma Chemie, Deisenhofen, Germany) was added, and plates were incubated for an additional 1 h at 37° C. After four washes, 100 μl of peroxidase-conjugated streptavidin (Pharmingen) was added to cells and plates incubated at 37° C. for 30 min. After four washes, reactions were developed with ABTS in 0.1 M citrate-phosphate buffer (pH 4.35) containing 0.01% H2O2. Results for c-diGMP are shown as OD405 values after serial two-fold dilutions (FIG. 2). […] The effect of c-diGMP as an adjuvant was independent of the route of administration.
In contrast, in the presence of c-diAMP, i.n. administration of β-gal induced very high titers of specific IgG in all mice with titers higher than 500,000 (FIG. 11).
In view of the above in vitro results, additional in vivo studies have been conducted. […] Thus, the capacity of c-diGMP and c-diAMP, respectively, to stimulate efficient humoral immune responses was evaluated, by determining the serum titers of β-gal-specific antibodies in vaccinated mice.

[3] = test system: spleen cells; assay: [3H]thymidine proliferation of spleen cells from vaccinated mice restimulated in vitro with β-gal; settings: day 38, in vitro restimulation with β-gal
Experimental: Experimental protocol: Spleens were removed and pooled for analysis of cellular immune responses. Cells were grown in RPMI 1640 supplemented with 10% fetal calf serum, 100 U/ml of penicillin, 50 μg/ml of streptomycin, 5×10^−5 M 2-mercaptoethanol and 1 mM L-glutamine (GIBCO BRL, Karlsruhe, Germany) and maintained at 37° C. in a humidified 5% CO2 atmosphere. Spleen cell suspensions were adjusted to 5×10^6 cells/ml in complete medium, cells were seeded with 100 μl per well in a flat-bottomed 96-well microtiter plate (Nunc) and plates were incubated for 4 days in the presence of different concentrations of soluble β-gal. That is, T cell mediated immune responses were investigated at day 38 by measuring the proliferation after in vitro restimulation with β-Gal of cells which have been recovered from spleens before. Said spleen cells were obtained from vaccinated mice—said mice where immunized as described in Example 2—and incubated in the presence of different concentrations of the soluble β-Gal antigen. Each concentration was tested in quadruplicates. During the final 18 h of culture, 1 μCi of [3H]thymidine (Amersham International, Freiburg, Germany) was added to each well. Cells were then harvested on paper filters (Filtermat A; Wallac, Freiburg, Germany) by using a cell harvester (Inotech, Wohlen, Switzerland), and the amount of incorporated [3H]thymidine into the DNA of proliferating cells was determined by a β-scintillation counter (Wallac 1450, Micro-Trilux). The results are expressed as the arithmetic mean of [^3H]thymidine uptake in cpm.
Thirty eight days following vaccination, spleens cells were purified, re-stimulated in vitro in the presence of various amounts of β-galactosidase and their proliferative capacity was estimated by measuring the incorporation of [3H]thymidine into their DNA using a β-scintillation counter.

[4] = test system: BALB/c (H-2d) mice; assay: β-gal-specific IgA in lung and vaginal lavages of immunized mice; settings: i.n. immunization, day 38, versus β-gal alone (FIG. 4, FIG. 5)
Experimental: Experimental protocol: at day 38, mice were sacrificed and the final sampling was performed. Vaginal and lung lavages were obtained by flushing the organs with 1 ml of PBS supplemented with 50 mM EDTA, 0.1% BSA, and 10 mM PMSF. Lavages were then centrifuged to remove debris (10 min at 3000×g), and supernatant fluids were stored at −20° C. To determine the concentration of total IgA present in the lung and vaginal lavages, serial dilutions of the corresponding samples were incubated in microtiter plates that were previously coated with goat anti-mouse IgA (Sigma Chemie), as capture antibodies (100 μl/well). Serial dilutions of purified mouse IgA (Sigma Chemie) were used to generate a standard curve.
To investigate the capacity of c-diGMP and c-diAMP, respectively, to stimulate mucosal responses against antigens co-administered by the i.n. and s.c. route, the production of β-gal-specific IgA in lung was analyzed (FIG. 5 for c-diAMP and FIG. 4 for c-diGMP) from immunized animals, immunized according to the protocol described in Example 2.

## β-gal: soluble model antigen β-galactosidase (Boehringer), given alone as comparator without adjuvant
[1]
  IFNγ producing cells, i.n. vaccination: scarcely detectable
[2]
  β-gal specific IgG titer in sera, i.n. administration: very low antibody titers
[3]; i.n., low amounts of antigen (FIG. 6)
  proliferation of spleen cells, i.n. immunization: failed to induce detectable cellular proliferation
[3]; s.c., [3H]thymidine (FIG. 6)
  proliferation of spleen cells, s.c. immunization: significant proliferative response
[4]
  β-gal-specific IgA in lung lavages: weak production
